Experimental data published in patent US6660879B2, “3-aryl-2-hydroxypropionic acid derivative I” (AstraZeneca AB, priority 1998, dated 2003).

Tested on: obese diabetic mice of the Umeå ob/ob strain
Test: Biological activity in obese diabetic ob/ob mice (plasma glucose, insulin, triglycerides; weight gain)
Type: in vivo
Details: gavage once daily for 7 days
Protocol: The biological activity of the compound of the invention was tested in obese diabetic mice of the Umea ob/ob strain. Groups of mice received the test compound by gavage once daily for 7 days. On the last day of the experiment the animals were anesthetized 2h after dose in a non-fed state and blood was collected from an incised artery. Plasma was analyzed for concentration of glucose, insulin and triglycerides. A group of untreated obese diabetic mice of the same age served as control. The weight of the mice was measured before and after the experiment and the obtained weight gain was compared to the weight gain of the control animals. The individual values for glucose, insulin and triglyceride levels of the mice from the test group were expressed as the percent rage of the corresponding values from the control group.
The desired “therapeutic effect” was calculated as the average percent reduction of the three variables glucose, insulin and triglycerides below the levels in the control animals. The therapeutic effect of the tested compounds according to the invention was compared to the same effect in the prior art compound troglitazone, administrered by gavage in the oral dose of 100 μmol/kg for 7 days.

## CCO[C@@H](Cc1ccc(OCCc2ccc(OS(C)(=O)=O)cc2)cc1)C(=O)O [Example 1, (S)-2-Ethoxy-3-[4-(2-{4-methanesulfonyloxyphenyl}ethoxy)phenyl]propanoic acid]
Plasma 2h after last dose, non-fed, compared to troglitazone given in the same oral dose (100 μmol/kg for 7 days)
  therapeutic effect (average percent reduction of glucose, insulin and triglycerides below the levels in the control animals): superior effects
Weight measured before and after the experiment
  weight gain compared to the weight gain of the control animals: without undesirable weight gain
